We go through 11 molecules from ChEMBL document CHEMBL1201862, “PubChem BioAssay data set” (2004).

Among the test systems are SNB-19; OVCAR-3; Malme-3M; PC-3; EKVX; MCF7; NCI-H460; SK-MEL-5; Hs-578T; OVCAR-8; MDA-N; K562; HOP-62; SF-539; HL-60; HOP-92; UO-31; SNB-75; CCRF-CEM; HCC 2998.
Common to all, as to experiment: NCI tumour cell line growth inhibition, 48 h

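Growth conditions: 96-well plates. Treatment: test compound, 48 hours, 5 concentrations. Analysis: linear interpolation between bracketing concentrations; unreached endpoints set to highest concentration. Abbreviation: GI50, concentration required for 50% inhibition of growth.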 Activity calls are given as the source filed them. No stated cut-off is given here; in the data, active = GI50 up to about 1.1 µM and inactive = higher. Some results are limits rather than exact numbers.

With `Cc1ccc(S(=O)(=O)Nc2ccccc2C=O)cc1`, the GI50 in the experiment with SNB-19 is 21.5 µM (inactive); in the experiment on OVCAR-3, 16.9 µM (inactive); in the experiment on Malme-3M it was 14.7 µM (inactive); in the experiment on PC-3 it was 11.4 µM (inactive); in the experiment with EKVX, 25 µM (inactive); in the experiment on MCF7, 12.4 µM (inactive). In addition, the GI50 is 19.8 µM (inactive) with NCI-H460; 11.9 µM (inactive) in the experiment with SK-MEL-5; 15.8 µM (inactive) in the experiment with Hs-578T; 14.7 µM (inactive) in the experiment on OVCAR-8; 15.7 µM (inactive) in the experiment on MDA-N; 8.15 µM (inactive) in the experiment on K562. The GI50 in the experiment on HOP-62 is 21.5 µM (inactive); with SF-539 it was 0.569 µM (active); in the experiment with HL-60, 11 µM (inactive); with HOP-92, 2.35 µM (inactive); in the experiment on UO-31 it was 10.7 µM (inactive); in the experiment with SNB-75, 18.3 µM (inactive).
Take `N[C@H]1CCN(c2c(F)cc3c(=O)c(C(=O)O)cn4c3c2Oc2c-4ccc3c2ccc2ccccc23)C1`: the GI50 in the experiment on SNB-19 is 1.33 µM (inactive); in the experiment on OVCAR-3, 13.1 µM (inactive); in the experiment on Malme-3M, 16.9 µM (inactive); in the experiment with PC-3, 0.935 µM (active); in the experiment with EKVX it was 0.377 µM (active); in the experiment on MCF7, 0.817 µM (active). The GI50 in the experiment on NCI-H460 was 0.115 µM (active); in the experiment on SK-MEL-5, 0.776 µM (active); in the experiment on Hs-578T, 0.731 µM (active); in the experiment with OVCAR-8, 0.664 µM (active); in the experiment with MDA-N, 0.767 µM (active); in the experiment with K562, 0.583 µM (active). The GI50 with HOP-62 is 1.07 µM (active); with SF-539, 1.25 µM (inactive); in the experiment with HL-60, 4.21 µM (inactive); with HOP-92, 2.46 µM (inactive); in the experiment on UO-31, 1.64 µM (inactive).
Regarding `COc1ccc(N(CN2C(=O)CCC2OC)C(C)=O)cc1` (stereo not drawn), the GI50 in the experiment on SNB-19, in the experiment with OVCAR-3, with Malme-3M, in the experiment with PC-3, in the experiment on EKVX and in the experiment on MCF7 was > 100 µM (inactive) in each case. Besides, the GI50 in the experiment on NCI-H460, in the experiment on SK-MEL-5, in the experiment with Hs-578T, in the experiment with OVCAR-8, in the experiment on CCRF-CEM and with MDA-N was > 100 µM (inactive) throughout. Also, the GI50 with K562, with HOP-62, in the experiment on SF-539, in the experiment on HOP-92, with UO-31 and with SNB-75 was > 100 µM (inactive) in each case.
For the molecule `Cc1nn(-c2ccccc2)c2c1C(c1cc3ccccc3nc1Cl)NC(=S)N2` (stereo not drawn), the GI50 in the experiment with SNB-19 is 57.3 µM (inactive); in the experiment with OVCAR-3, 54 µM (inactive); with Malme-3M it was > 100 µM (inactive); with PC-3, 67.1 µM (inactive); with EKVX it was 92.7 µM (inactive); in the experiment on MCF7, 38 µM (inactive). Besides, the GI50 with NCI-H460 is > 100 µM (inactive); in the experiment on SK-MEL-5, 58.6 µM (inactive); in the experiment on Hs-578T, 37.7 µM (inactive); in the experiment on OVCAR-8, 27.9 µM (inactive); in the experiment on CCRF-CEM it was 31.9 µM (inactive); with MDA-N, 45.7 µM (inactive). Also, the GI50 with K562 is 39.5 µM (inactive); with HOP-62, > 100 µM (inactive); in the experiment on SF-539 it was 24.8 µM (inactive); with HL-60 it was 35.5 µM (inactive); with HOP-92 it was 18.2 µM (inactive); with UO-31, 20.8 µM (inactive). In the experiment on SNB-75, the GI50 is 82.2 µM (inactive).
For the molecule `O=C1NN=C(c2ccc(Cl)cc2)CC1C1C(=O)N(c2ccccc2)N=C1c1ccccc1` (stereo not drawn), the GI50 was 33.8 µM (inactive) in the experiment with SNB-19; 27.5 µM (inactive) in the experiment on OVCAR-3; 30.7 µM (inactive) with Malme-3M; 22.2 µM (inactive) with PC-3; 35 µM (inactive) with EKVX; 26.8 µM (inactive) in the experiment with HCC 2998. For the same molecule, the GI50 with MCF7 was 40.5 µM (inactive); in the experiment with NCI-H460 it was 28.1 µM (inactive); in the experiment with SK-MEL-5, > 10 µM (inactive); in the experiment on Hs-578T, 18.8 µM (inactive); with OVCAR-8, 41.9 µM (inactive); in the experiment on CCRF-CEM, 26.5 µM (inactive). The GI50 with MDA-N is 34.8 µM (inactive); in the experiment on K562 it was 30 µM (inactive); in the experiment on HOP-62 it was 32 µM (inactive); in the experiment on SF-539, 25.9 µM (inactive); in the experiment with HL-60 it was 37.2 µM (inactive); with UO-31, 21.5 µM (inactive). Also, the GI50 in the experiment with SNB-75 is 23.2 µM (inactive).
On to `O=C1CSC(c2ccc([N+](=O)[O-])cc2)N1c1ccc(-c2ccc(-n3c(-c4ccccc4)nc4ccccc4c3=O)cc2)cc1` (stereo not drawn), for which the GI50 was > 100 µM (inactive) with SNB-19; 53.1 µM (inactive) in the experiment with OVCAR-3; 58.1 µM (inactive) with Malme-3M; 36.4 µM (inactive) with PC-3; 38.5 µM (inactive) with EKVX; 35.7 µM (inactive) in the experiment on HCC 2998. The GI50 is 33.1 µM (inactive) in the experiment on MCF7; 38.4 µM (inactive) in the experiment on NCI-H460; 17.3 µM (inactive) with SK-MEL-5; > 100 µM (inactive) in the experiment on Hs-578T; 46.9 µM (inactive) with OVCAR-8; 25.7 µM (inactive) in the experiment with CCRF-CEM. The GI50 is 75 µM (inactive) in the experiment with MDA-N; 34.4 µM (inactive) in the experiment on K562; > 100 µM (inactive) with HOP-62; > 100 µM (inactive) with SF-539; 26.5 µM (inactive) in the experiment on HL-60; 41.7 µM (inactive) in the experiment with HOP-92. Besides, the GI50 in the experiment with UO-31 is 46.8 µM (inactive).
For the molecule `CC[C@H](NC1=C(Cl)C(=O)c2c(O)ccc(O)c2C1=O)C(=O)OC`, the GI50 in the experiment with SNB-19 was > 10 µM (inactive); in the experiment on OVCAR-3, 4.19 µM (inactive); in the experiment with Malme-3M, 4.28 µM (inactive); with PC-3 it was 6.9 µM (inactive); in the experiment on EKVX, > 10 µM (inactive); in the experiment with MCF7, 3.94 µM (inactive). Besides, the GI50 is > 10 µM (inactive) in the experiment on NCI-H460; 6.53 µM (inactive) with SK-MEL-5; > 10 µM (inactive) in the experiment with Hs-578T; 4.63 µM (inactive) in the experiment on OVCAR-8; 3.5 µM (inactive) in the experiment on CCRF-CEM; 6.55 µM (inactive) in the experiment with MDA-N. For the same molecule, the GI50 in the experiment on K562 was 3.94 µM (inactive); with HOP-62, > 10 µM (inactive); with SF-539 it was 3.44 µM (inactive); in the experiment with HL-60 it was 3.79 µM (inactive); in the experiment on HOP-92 it was > 10 µM (inactive); with SNB-75, > 10 µM (inactive).
With `COC(=O)NN(C(=O)OC)c1c(-c2ccccc2)nc(SC)n1N`, the GI50 in the experiment on SNB-19, in the experiment on OVCAR-3, in the experiment on Malme-3M, with PC-3, in the experiment on EKVX and with HCC 2998 was > 100 µM (inactive) each time. Moreover, the GI50 with MCF7, in the experiment with NCI-H460, with SK-MEL-5, in the experiment with Hs-578T, in the experiment with OVCAR-8 and in the experiment with CCRF-CEM was > 100 µM (inactive) throughout. Besides, the GI50 in the experiment with MDA-N, in the experiment on K562, in the experiment with HOP-62, in the experiment with SF-539, with HL-60 and in the experiment on UO-31 was > 100 µM (inactive) in each case. Moreover, the GI50 in the experiment with SNB-75 was > 100 µM (inactive).
For `CCCCCCCCCCCCOC1C(COCCN2CCCC2)OC2OC(C)(C)OC21` (stereo not drawn), the GI50 with SNB-19 was 2.94 µM (inactive); in the experiment on OVCAR-3, 1.62 µM (inactive); in the experiment with Malme-3M it was 1.92 µM (inactive); in the experiment on PC-3, 1.65 µM (inactive); in the experiment on EKVX it was 3.18 µM (inactive); in the experiment with MCF7 it was 1.71 µM (inactive). Moreover, the GI50 is 1.6 µM (inactive) in the experiment on SK-MEL-5; 1.76 µM (inactive) with Hs-578T; 1.64 µM (inactive) in the experiment on OVCAR-8; 1.86 µM (inactive) in the experiment on CCRF-CEM; 1.41 µM (inactive) with MDA-N; 1.23 µM (inactive) in the experiment with K562. For the same molecule, the GI50 in the experiment with HOP-62 was 1.8 µM (inactive); with SF-539 it was 1.76 µM (inactive); in the experiment on HL-60, 0.927 µM (active); in the experiment with HOP-92, 1.39 µM (inactive); in the experiment on UO-31, 1.6 µM (inactive); with SNB-75, 1.83 µM (inactive).
As to `CC(C)(C)c1cc(C2=NNC(c3ccccc3)C2)cc(C(C)(C)C)c1O` (stereo not drawn), the GI50 in the experiment on SNB-19 is 18 µM (inactive); in the experiment on OVCAR-3, 3.88 µM (inactive); with Malme-3M, 17.9 µM (inactive); in the experiment on PC-3, 14.6 µM (inactive); in the experiment on EKVX it was 16.1 µM (inactive); in the experiment with MCF7 it was 13.8 µM (inactive). The GI50 with NCI-H460 was 15.4 µM (inactive); in the experiment with SK-MEL-5, 11 µM (inactive); in the experiment with Hs-578T, 19.1 µM (inactive); with OVCAR-8, 16.7 µM (inactive); in the experiment with MDA-N, 12.6 µM (inactive); in the experiment with HOP-62, 17.1 µM (inactive). The GI50 is 19.8 µM (inactive) with SF-539, 14.9 µM (inactive) in the experiment on HOP-92, 15 µM (inactive) in the experiment on UO-31 and 10.3 µM (inactive) in the experiment with SNB-75.
Take `COc1ccc(-n2c(C)nc3ccc(NC4OCC(OC(C)=O)C(OC(C)=O)C4OC(C)=O)cc3c2=O)cc1` (stereo not drawn): the GI50 in the experiment with SNB-19 was > 100 µM (inactive); in the experiment on OVCAR-3, > 100 µM (inactive); in the experiment on Malme-3M, > 100 µM (inactive); with PC-3 it was > 100 µM (inactive); in the experiment on EKVX, > 100 µM (inactive); with HCC 2998, 97.1 µM (inactive). Also, the GI50 in the experiment with MCF7, in the experiment with NCI-H460, with SK-MEL-5, with Hs-578T, in the experiment with OVCAR-8 and in the experiment with MDA-N was > 100 µM (inactive) throughout. The GI50 was > 100 µM (inactive) in the experiment with K562; > 100 µM (inactive) in the experiment with HOP-62; 32.4 µM (inactive) in the experiment on HL-60; > 100 µM (inactive) with UO-31; > 100 µM (inactive) in the experiment on SNB-75.
